Test results published in patent publication US7138361B2, “Herbicidal heterocycles” (E. I. du Pont de Nemours and Company, priority 2000, dated 2006).

Columns and labels:
Format in all cases: in vivo
Sunflower = assay: Test C preemergence; settings: Rate 125 g/ha, scale 0 to 100, 0 no effect, 100 complete control
[1] = system: barnyardgrass (Echinochloa crus-galli); assay: Test C flooded paddy test; settings: for Barnyardgrass plant response rating: scale 0 to 100, 0 no effect, 100 complete control
Method in brief: (§1)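 Greenhouse-maintained for 12 to 14 days after treatment, the paddy plants (2-leaf stage at application) were scored visually against controls. A score of 0 denotes no effect and a score of 100 denotes complete control.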

[2] = system: smallflower flatsedge (Cyperus difformis); assay: Test C flooded paddy test; settings: for Flatsedge plant response rating: Flooded Paddy, scale 0 to 100, 0 no effect, 100 complete control; for Plant response rating, Flatsedge: flooded paddy test, scale 0 to 100 (0 no effect, 100 complete control)
Method in brief: as §1

[3] = system: duck salad (Heteranthera limosa); assay: Test C flooded paddy test; settings: for Ducksalad plant response rating: scale 0 to 100, 0 no effect, 100 complete control
Method in brief: as §1

rice (Oryza saliva) [4] = assay: Test C flooded paddy test; settings: for Rice plant response rating: scale 0 to 100, 0 no effect, 100 complete control
Method in brief: as §1

Nightshade = assay: Test C preemergence; settings: Rate 250 g/ha, visual evaluation after 12 to 14 days
[5] = system: barnyardgrass (Echinochloa crus-galli); assay: Test B flooded paddy test; settings: Rate 1000 g/ha, scale of 0 to 100 where 0 is no effect and 100 is complete control, visually evaluated after 13 to 15 days
Method in brief: (§2)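 Visual injury score on a 0–100 scale, where 100 means complete control, assigned against untreated controls 13 to 15 days after plants at the 2-leaf stage were treated under flooded paddy conditions.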

[6] = system: smallflower flatsedge (Cyperus difformis); assay: Test B flooded paddy test; settings: Rate 1000 g/ha, scale of 0 to 100 where 0 is no effect and 100 is complete control, visually evaluated after 13 to 15 days
Method in brief: as §2

[7] = system: duck salad (Heteranthera limosa); assay: Test B flooded paddy test; settings: Rate 1000 g/ha, scale of 0 to 100 where 0 is no effect and 100 is complete control, visually evaluated after 13 to 15 days
Method in brief: as §2

rice (Oryza saliva) [8] = assay: Test B flooded paddy test; settings: Rate 1000 g/ha, scale of 0 to 100 where 0 is no effect and 100 is complete control, visually evaluated after 13 to 15 days
Method in brief: as §2

[9] = flooded paddy test, Rate 62 g/ha, scale 0 to 100 (0 no effect, 100 complete control)
[10] = flooded paddy test, Rate 125 g/ha, scale 0 to 100 (0 no effect, 100 complete control)
[11] = Flooded Paddy, Rate 500 g/ha, scale 0 to 100
[12] = Flooded Paddy, Rate 1000 g/ha, scale 0 to 100

O=C1C(n2ccc(C3CCCCC3)n2)SCN1c1cccc(OC(F)(F)F)c1 (stereo not drawn) [Compound 50]
Plant response rating, Sunflower (Sunflower): 30
Barnyardgrass plant response rating ([1]; Flooded Paddy, Rate 250 g/ha): 70
Barnyardgrass plant response rating ([1]; Flooded Paddy, Rate 500 g/ha): 80
Plant response rating, Barnyardgrass [1, 9]: 0
Plant response rating, Barnyardgrass [1, 10]: 40
Flatsedge plant response rating ([2]; Rate 250 g/ha): 90
Flatsedge plant response rating ([2]; Rate 500 g/ha): 100
Plant response rating, Flatsedge ([2]; Rate 62 g/ha): 80
Plant response rating, Flatsedge ([2]; Rate 125 g/ha): 90
Ducksalad plant response rating ([3]; Flooded Paddy, Rate 250 g/ha): 80
Ducksalad plant response rating ([3]; Flooded Paddy, Rate 500 g/ha): 90
Plant response rating, Ducksalad [3, 9]: 0
Plant response rating, Ducksalad [3, 10]: 70
Rice plant response rating (rice (Oryza saliva) [4]; Flooded Paddy, Rate 250 g/ha): 0
Rice plant response rating (rice (Oryza saliva) [4]; Flooded Paddy, Rate 500 g/ha): 50
Plant response rating, Rice (rice (Oryza saliva) [4]; [9]): 0
Plant response rating, Rice (rice (Oryza saliva) [4]; [10]): 0
Plant response rating (0 to 100), Nightshade (Nightshade): 0
Plant response rating, Barnyardgrass [5]: 100
Plant response rating, Flatsedge [6]: 100
Plant response rating, Ducksalad [7]: 100
Plant response rating, Rice (rice (Oryza saliva) [8]): 60

CC(C)(C)c1ccn(C2CCN(c3cccc(Br)c3)C2=O)n1 (stereo not drawn) [Compound 33]
Plant response rating, Sunflower (Sunflower): 0
Plant response rating (0 to 100), Nightshade (Nightshade): 0
Plant response rating, Barnyardgrass [5]: 0
Plant response rating, Flatsedge [6]: 0
Plant response rating, Ducksalad [7]: 0
Plant response rating, Rice (rice (Oryza saliva) [8]): 0

O=C1C(n2ccc(C3CC3)n2)CCN1c1cccc(C(F)(F)F)c1 (stereo not drawn) [Compound 8]
Plant response rating, Sunflower (Sunflower): 0
Plant response rating, Barnyardgrass [1, 11]: 70
Plant response rating, Barnyardgrass [1, 12]: 100
Barnyardgrass plant response rating ([1]; Flooded Paddy, Rate 250 g/ha): 40
Plant response rating, Barnyardgrass [1, 9]: 0
Plant response rating, Barnyardgrass [1, 10]: 0
Flatsedge plant response rating ([2]; Rate 250 g/ha): 100
Flatsedge plant response rating ([2]; Rate 500 g/ha): 100
Flatsedge plant response rating ([2]; rate of this column group stands in head line r653, not shown (group before Rate 500 g/ha)): 100
Plant response rating, Flatsedge ([2]; Rate 62 g/ha): 30
Plant response rating, Flatsedge ([2]; Rate 125 g/ha): 90
Plant response rating, Ducksalad [3, 11]: 70
Plant response rating, Ducksalad [3, 12]: 100
Ducksalad plant response rating ([3]; Flooded Paddy, Rate 250 g/ha): 40
Plant response rating, Ducksalad [3, 9]: 0
Plant response rating, Ducksalad [3, 10]: 20
Plant response rating, Rice (rice (Oryza saliva) [4]; [11]): 60
Plant response rating, Rice (rice (Oryza saliva) [4]; [12]): 80
Rice plant response rating (rice (Oryza saliva) [4]; Flooded Paddy, Rate 250 g/ha): 60
Plant response rating, Rice (rice (Oryza saliva) [4]; [9]): 0
Plant response rating, Rice (rice (Oryza saliva) [4]; [10]): 0
Plant response rating (0 to 100), Nightshade (Nightshade): 0
Plant response rating, Barnyardgrass [5]: 100
Plant response rating, Flatsedge [6]: 100
Plant response rating, Ducksalad [7]: 80
Plant response rating, Rice (rice (Oryza saliva) [8]): 90
